No end group written: not given here.
target: T1, CR2 receptor on Raji cells (Homo sapiens, UniProt P20023); assay: Inhibition of direct binding of C3-coated Zymosan to cells (rosette count); details: polypeptide zero to 200 ug in 100 ul, 37 C 30 min, amount behind the value not stated
T1 construct: endogenous in cells; host or cells: Raji cells (human B lymphoblastoid, ATCC CCL 86)
T1 sequence (P20023 21-1033): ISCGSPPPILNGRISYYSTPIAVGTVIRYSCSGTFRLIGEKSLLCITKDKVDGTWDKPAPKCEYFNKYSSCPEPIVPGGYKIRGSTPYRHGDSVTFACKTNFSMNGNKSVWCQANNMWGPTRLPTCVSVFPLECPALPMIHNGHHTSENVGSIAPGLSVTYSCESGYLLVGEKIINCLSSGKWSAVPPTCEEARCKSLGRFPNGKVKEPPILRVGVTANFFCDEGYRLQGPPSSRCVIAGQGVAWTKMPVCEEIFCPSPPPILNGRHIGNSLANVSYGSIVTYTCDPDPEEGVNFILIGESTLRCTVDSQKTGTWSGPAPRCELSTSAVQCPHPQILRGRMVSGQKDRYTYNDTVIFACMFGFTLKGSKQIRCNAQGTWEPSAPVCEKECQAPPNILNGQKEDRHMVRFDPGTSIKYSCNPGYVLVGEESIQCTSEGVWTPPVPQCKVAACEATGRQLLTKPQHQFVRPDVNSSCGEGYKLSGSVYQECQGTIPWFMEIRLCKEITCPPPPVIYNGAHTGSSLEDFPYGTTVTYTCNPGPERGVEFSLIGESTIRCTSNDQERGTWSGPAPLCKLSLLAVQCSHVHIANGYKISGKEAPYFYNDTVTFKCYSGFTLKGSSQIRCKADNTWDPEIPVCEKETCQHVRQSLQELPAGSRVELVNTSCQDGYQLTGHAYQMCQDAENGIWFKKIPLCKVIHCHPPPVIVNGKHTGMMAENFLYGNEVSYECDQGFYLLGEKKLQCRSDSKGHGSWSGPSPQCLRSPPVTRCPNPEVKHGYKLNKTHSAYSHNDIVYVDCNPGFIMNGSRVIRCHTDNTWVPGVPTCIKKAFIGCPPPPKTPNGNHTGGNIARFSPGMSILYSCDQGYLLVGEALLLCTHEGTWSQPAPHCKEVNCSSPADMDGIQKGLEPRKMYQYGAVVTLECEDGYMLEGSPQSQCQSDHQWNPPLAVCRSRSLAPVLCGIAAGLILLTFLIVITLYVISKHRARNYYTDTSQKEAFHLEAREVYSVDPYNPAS
Procedure: Fresh blood from a healthy donor was collected and maintained at room temperature for 2 hours. Then the blood was centrifuged at 2000 x g for about 10 min and the resulting supernatant was collected. Five mg of Zymosan A particles (Sigma Chemical Co., St. Louis, Mo.) were boiled for 30 min in 20 ml of 150 mM NaCl and washed three times in phosphate-buffered saline (PBS) to form activated Zymosan. One mg of activated Zymosan particles was admixed with 0.5 ml of blood supernatant and maintained at 37 C. for 30 min, and then was washed 3 times in PBS. The washed particles were then resuspended in PBS at a concentration of 0.5 mg/ml to form a C3 -coated Zymosan composition.
Cultures containing 10^5 Raji or HSB2 cells were admixed with varying amounts (zero to 200 ug) of the polypeptides shown in Table 2 in a volume of 100 microliters (ul) of culture medium and the admixture was maintained at 37C for 30 min to allow CR2 ligand polypeptides to bind any CR2 receptor present on the cells. Thereafter, 50 ul of C3 -coated Zymosan composition was added to each culture, the cultures were subjected to centrifugation for 1 min at 600×g and then maintained at 37 C. for 30 min. The maintained cultures were then washed with prewarmed culture medium to rinse off non-bound particles. Washed cultures were observed using a microscope to detect and count the number of particles (rosettes) attached per cell. More than 3 rosettes per cell was counted as C3 specific binding. Inhibition is expressed as the percent decrease in bound rosettes when comparing binding in the presence or absence of admixed polypeptide.

Substance	Inhibition of direct binding of C3-coated Zymosan to cells (percent decrease in bound rosettes) [%]
LYNVEAT [LYNVEAT]	70
NSGVEA [NSGVEA]	35
SRRGDMS [SRRGDMS]	0

From US5331090A, “CR2 ligand compositions and methods for modulating immune cell functions” (California Institute of Biological Research, priority 1989, dated 1994)
